The source made the active and inactive calls. The rule behind the calls is not given here.
Legend:
[1] = Metabolic stability in mouse hepatocytes assessed as intrinsic clearance per million cells at 1 uM measured upto 30 mins; format: ADME, cell-based, Hepatocyte; conditions: read-out: CLH
[2] = Metabolic stability in mouse hepatocytes assessed as compound remaining at 1 uM measured after 30 mins; format: ADME, cell-based, Hepatocyte; conditions: read-out: Stability
[3] = Metabolic stability in mouse hepatocytes assessed as half life at 1 uM measured upto 30 mins; format: ADME, cell-based, Hepatocyte
[4] = Metabolic stability in human hepatocytes assessed as compound remaining at 1 uM measured after 30 mins; format: ADME, cell-based, Hepatocyte; conditions: read-out: Stability
[5] = Metabolic stability in human hepatocytes assessed as half life at 1 uM measured upto 30 mins; format: ADME, cell-based, Hepatocyte
[6] = Metabolic stability in human liver microsomes assessed as intrinsic clearance; format: ADME, Microsome; conditions: read-out: CLH
[7] = Cytotoxicity against african green monkey Vero E6 cells incubated for 48 hrs; format: toxicity, cell-based, Vero C1008; conditions: chlorocebus sabaeus
[8] = Metabolic stability in human liver microsomes assessed as half life; format: ADME, Microsome
[9] = Metabolic stability in human hepatocytes assessed as intrinsic clearance per million cells at 1 uM measured upto 30 mins; format: ADME, cell-based, Hepatocyte; conditions: read-out: CLH
[10] = target: T1, Replicase polyprotein 1ab (Severe acute respiratory syndrome coronavirus 2, UniProt P0DTD1); test: Inhibition of SARS-CoV2 PLpro using Z-RLRGG-AMC as substrate preincubated for 10 mins followed by substrate addition and measured after 20 sec shaking for 30 mins by time-resolved fluorescence assay
[11] = Half life in BALB/c mouse at 50 mg/kg, po measured upto 48 hrs by LC-MS/MS analysis; format: ADME, organism-based; conditions: in vivo
[12] = Oral bioavailability in BALB/c mouse at 50 mg/kg measured upto 48 hrs by LC-MS/MS analysis; format: ADME, organism-based; conditions: in vivo
[13] = MRT(0 to t) in BALB/c mouse at 50 mg/kg, po measured upto 48 hrs by LC-MS/MS analysis; format: ADME, organism-based; conditions: in vivo
[14] = AUC(0 to infinity) in BALB/c mouse at 5 mg/kg, iv measured upto 48 hrs by LC-MS/MS analysis; format: ADME, organism-based; conditions: in vivo
[15] = Half life in BALB/c mouse at 5 mg/kg, iv measured upto 48 hrs by LC-MS/MS analysis; format: ADME, organism-based; conditions: in vivo
[16] = target: Replicase polyprotein 1ab (Middle East respiratory syndrome-related coronavirus (isolate UnitedKingdom/H123990006/2012) (Betacoronavirus England 1) (Humancoronavirus EMC)) (UniProt K9N7C7); test: Inhibition of MERS-CoV PLpro using Z-RLRGG-AMC as substrate preincubated for 10 mins followed by substrate addition and measured after 20 sec shaking for 30 mins by time-resolved fluorescence assay; conditions: time 40.3 min
[17] = Metabolic stability in CD-1 mouse liver microsomes assessed as compound remaining at 1 uM preincubated for 5 mins followed by NADPH addition and measured after 30 mins by LC-MS/MS analysis; format: ADME, Microsome; conditions: read-out: Stability
[18] = target: T1, Replicase polyprotein 1ab; test: Binding affinity to SARS-CoV2 PLpro by biolayer interferometry analysis
[19] = Metabolic stability in human liver microsomes assessed as half life at 1 uM preincubated for 5 mins followed by NADPH addition and measured after 30 mins by LC-MS/MS analysis; format: ADME, Microsome; conditions: time 35 min
[20] = MRT(0 to infinity) in BALB/c mouse at 50 mg/kg, po measured upto 48 hrs by LC-MS/MS analysis; format: ADME, organism-based; conditions: in vivo
[21] = Metabolic stability in human liver microsomes assessed as compound remaining at 1 uM preincubated for 5 mins followed by NADPH addition and measured after 30 mins by LC-MS/MS analysis; format: ADME, Microsome; conditions: read-out: Stability
[22] = target: Replicase polyprotein 1ab (Severe acute respiratory syndrome coronavirus 2) (UniProt P0DTD1); test: Inhibition of SARS-CoV2 PLpro cleavage activity using 2Ub-K48 as substrate incubated overnight by SYPRO Ruby staining based SDS-PAGE analysis
[23] = Clearance in BALB/c mouse at 5 mg/kg, iv measured upto 48 hrs by LC-MS/MS analysis; format: ADME, organism-based; conditions: in vivo
[24] = AUC(0 to t) in BALB/c mouse at 50 mg/kg, po measured upto 48 hrs by LC-MS/MS analysis; format: ADME, organism-based; conditions: in vivo
[25] = AUC(0 to infinity) in BALB/c mouse at 50 mg/kg, po measured upto 48 hrs by LC-MS/MS analysis; format: ADME, organism-based; conditions: in vivo
[26] = Metabolic stability in CD-1 mouse liver microsomes assessed as half life at 1 uM preincubated for 5 mins followed by NADPH addition and measured after 30 mins by LC-MS/MS analysis; format: ADME, Microsome; conditions: time 35 min
[27] = target: Replicase polyprotein 1ab (Severe acute respiratory syndrome coronavirus 2) (UniProt P0DTD1); test: Inhibition of RLRGG binding to SARS-CoV2 PLpro
[28] = MRT(0 to infinity) in BALB/c mouse at 5 mg/kg, iv measured upto 48 hrs by LC-MS/MS analysis; format: ADME, organism-based; conditions: in vivo
[29] = Tmax in BALB/c mouse at 50 mg/kg, po measured upto 48 hrs by LC-MS/MS analysis; format: ADME, organism-based; conditions: in vivo
[30] = tested on: Severe acute respiratory syndrome-related coronavirus; test: Inhibition of SARS-CoV PLpro using Z-RLRGG-AMC as substrate preincubated for 10 mins followed by substrate addition and measured after 20 sec shaking for 30 mins by time-resolved fluorescence assay
[31] = Cmax in BALB/c mouse at 5 mg/kg, iv measured upto 48 hrs by LC-MS/MS analysis; format: ADME, organism-based; conditions: in vivo
[32] = AUC(0 to t) in BALB/c mouse at 5 mg/kg, iv measured upto 48 hrs by LC-MS/MS analysis; format: ADME, organism-based; conditions: in vivo
[33] = Cmax in BALB/c mouse at 50 mg/kg, po measured upto 48 hrs by LC-MS/MS analysis; format: ADME, organism-based; conditions: in vivo
[34] = MRT(0 to t) in BALB/c mouse at 5 mg/kg, iv measured upto 48 hrs by LC-MS/MS analysis; format: ADME, organism-based; conditions: in vivo
[35] = Tmax in BALB/c mouse at 5 mg/kg, iv measured upto 48 hrs by LC-MS/MS analysis; format: ADME, organism-based; conditions: in vivo
[36] = target: Replicase polyprotein 1ab (Severe acute respiratory syndrome coronavirus 2) (UniProt P0DTD1); test: Binding affinity to SARS-CoV2 PLpro assessed as stabilization by measuring increase melting temperature by thermal shift assay

SMILES	CC50 at 48 h [7]	IC50 [10]	half-life [11]	bioavailability [12]	MRT last at 48 h [13]	AUC(0-inf) [14]	half-life [15]	inhibition [16]	remaining at 0.5 h, 1 µM [17]	Kd [18]	half-life at 1 µM [19]	MRT inf [20]	remaining at 0.5 h, 1 µM [21]	inhibition [22]	clearance [23]	AUC(0-t) at 48 h [24]	AUC(0-inf) [25]	half-life at 1 µM [26]	inhibition [27]	MRT inf [28]	also measured
Cc1ccc(N)cc1C(=O)N[C@H](C)c1cccc2ccccc12	253 µM																				hepatocyte CLint at 1 µM [1]: 91.5 µL/min/1e6 cells; remaining at 0.5 h, 1 µM [2]: 6.4%; half-life at 1 µM [3]: 7.6 min; remaining at 0.5 h, 1 µM [4]: 63%; half-life at 1 µM [5]: 0.75 h; CLint scaled [6]: 27 mL/min/kg; half-life [8]: 0.44 h; hepatocyte CLint at 1 µM [9]: 15.4 µL/min/1e6 cells
Cc1ccc(-c2noc(C(C)c3ccc(-c4ccccc4)c(F)c3)n2)cc1NCc1ccc(C(=O)O)s1 (racemic)	124 µM	1 µM	2.53 h	39.1%	2.19 h	6260 ng·h/mL	4.2 h	Active	99.1%	13.6 µM	> 1.55 h	2.72 h	101%	Active	13.5 mL/min/kg	24300 ng·h/mL	24400 ng·h/mL	> 1.55 h	Active	2.96 h	Tmax [29]: 1.25 h; inhibition [30]: Active; Cmax [31]: 10600 ng/mL; AUC(0-t) at 48 h [32]: 6210 ng·h/mL; Cmax [33]: 10200 ng/mL; MRT last at 48 h [34]: 2.74 h; Tmax [35]: 0.05 h
CC(c1nc(-c2ccc(-c3ccc(C(=O)O)s3)cc2)no1)c1cccc2ccccc12 (centres undefined)	170 µM	1.8 µM	6.5 h	4.8%	8.05 h	36300 ng·h/mL	5.8 h	Active	101%	13.6 µM	> 1.55 h	8.29 h	82.1%	Active	2.35 mL/min/kg	17400 ng·h/mL	17500 ng·h/mL	> 1.55 h	Active	5.12 h	Activity [36]: Active; Tmax [29]: 0.88 h; inhibition [30]: Active; Cmax [31]: 14200 ng/mL; AUC(0-t) at 48 h [32]: 36300 ng·h/mL; Cmax [33]: 3670 ng/mL; MRT last at 48 h [34]: 5.04 h; Tmax [35]: 0.17 h
